SMILES strings stand for the structures.

Common to all, as to type: in vivo
The subject of assay [1] is cat fleas (Ctenocephalides felis, fully sensitive laboratory strain). As to the kind of experiment: Contact test against fleas in-vitro (CTECFE contact). The conditions noted are these: for activity against cat fleas: 500 g/ha, after 48 h. The method, then:
Contact Test Against Fleas In-Vitro (CTECFE Contact)
An amount of 0.9 mg of active compound is weighed out, and 1 ml of acetone is added.
Of this acetone solution, either […] are transferred directly into roll-necked test tubes or an aliquot is diluted with 4 parts of acetone 1:5. For its part, 250 μl of this dilution are pipetted into roll-necked test tubes, or the dilution is diluted further, etc., until the desired number of dilution steps is reached.
The roll-necked test tubes containing the solution of the active compound in acetone are immediately coated in a fume cupboard by 2 h of swing rotation at 30 rpm. After evaporation of the solvent, the active compound contained in the acetone gives, at the highest concentration tested, an active compound content of 500 g/ha (or 500 μg/dm^2) on the surface of the test tube.
10-20 Adult cat fleas (Ctenocephalides felis, fully sensitive laboratory strain) anesthetized with CO2 are transferred into the test tubes prepared in this manner, and the test tubes are closed with a plastic roll-necked lid provided with fine holes.
The test tubes are stored vertically at room temperature and humidity for 24 or 48 h. After 24 and 48 h, the activity of the active compound applied is determined by comparison with an acetone-treated control. Here, an observed normal activity for all fleas corresponds to 0% activity, a strongly restricted or uncoordinated (knock-down) movement or death of all fleas corresponds to 100% activity.

Assay [2] has as its system larvae of the mustard beetle (Phaedon cochleariae). As to the kind of experiment: Phaedon test (PHAECO spray treatment). The conditions noted are these: for pest or weed control at 500 g/ha: Phaedon cochleariae, 168 h, read-out: activity (beetle larvae killed); for pest or weed control at 500 g/ha / activity (beetle larvae killed): spray, after 7 days, 500 g/ha. The method, then:
Phaedon Test ([…] Spray Treatment) Solvents: 78.0 parts by weight of acetone • • 1.5 parts by weight of dimethylformamide Emulsifier: 0.5 part by weight of alkylaryl polyglycol ether To produce a suitable preparation of active compound, 1 part by weight of active compound is mixed with the stated amounts of solvents and emulsifiers, and the concentrate is diluted with emulsifier-containing water to the desired concentration. Discs of Chinese cabbage leaves (Brassica pekinensis) are sprayed with an active compound preparation of the desired concentration and, after drying, populated with larvae of the mustard beetle (Phaedon cochleariae).

In assay [3] the test system is caterpillars of the army worm (Spodoptera frugiperda). As to the kind of experiment: Spodoptera frugiperda test (SPODFR spray treatment). The conditions noted are these: for pest or weed control at 500 g/ha: Spodoptera frugiperda, 168 h, read-out: activity (caterpillars killed); for pest or weed control at 500 g/ha / activity (caterpillars killed): spray, after 7 days, 500 g/ha. The method, then:
Spodoptera frugiperda Test (SPODFR Spray Treatment) Solvents: 78.0 parts by weight of acetone • • 1.5 parts by weight of dimethylformamide Emulsifier: 0.5 part by weight of alkylaryl polyglycol ether
(§1) To produce a suitable preparation of active compound, 1 part by weight of active compound is mixed with the stated amounts of solvents and emulsifier, and the concentrate is diluted with emulsifier-containing water to the desired concentration.
Discs of maize leaves (Zea mays) are sprayed with an active compound preparation of the desired concentration and, after drying, populated with caterpillars of the army worm (Spodoptera frugiperda) besetzt.
After 7 days, the activity in % is determined. 100% means that all caterpillars have been killed; 0% means that none of the caterpillars have been killed.

Assay [4] has as its system green peach aphid (Myzus persicae). As to the kind of experiment: Myzus test (MYZUPE spray treatment). The conditions noted are these: for pest or weed control at 500 g/ha: Myzus persicae, 144 h, read-out: activity (aphids killed); for pest or weed control at 500 g/ha / activity (aphids killed): spray, after 6 days, 500 g/ha. The procedure: Myzus Test (MYZUPE Spray Treatment) Solvents: 78 parts by weight of acetone • • 1.5 parts by weight of dimethylformamide Emulsifier: 0.5 part by weight of alkylaryl polyglycol ether
as §1
Discs of Chinese cabbage leaves (Brassica pekinensis) which are infested by all stages of the green peach aphid (Myzus persicae) are sprayed with an active compound preparation of the desired concentration.
After 6 days, the activity in % is determined. 100% means that all aphids have been killed; 0% means that none of the aphids have been killed.

Assay [5] concerns greenhouse red spider mite (Tetranychus urticae). As to the kind of experiment: Tetranychus test; OP-resistant (TETRUR spray treatment). The conditions noted are these: for pest or weed control at 500 g/ha: Tetranychus urticae, 144 h, read-out: activity (spider mites killed); for pest or weed control at 500 g/ha / activity (spider mites killed): spray, after 6 days, 500 g/ha. The method, then:
Tetranychus Test; OP-Resistant (TETRUR Spray Treatment) Solvents: 78.0 parts by weight of acetone • • 1.5 parts by weight of dimethylformamide Emulsifier: 0.5 part by weight of alkylaryl polyglycol ether
as §1
Discs of bean leaves (Phaseolus vulgaris) infested by all stages of the greenhouse red spider mite (Tetranychus urticae) are sprayed with an active compound preparation of the desired concentration.
After 6 days, the activity in % is determined. 100% means that all spider mites have been killed; 0% means that none of the spider mites have been killed.

The subject of assay [6] is Anopheles gambiae (homocygus kdr). As to the kind of experiment: Anopheles test (ANPHGB surface treatment). The conditions noted are these: for mortality at 100 mg/m2: Anopheles gambiae, read-out: activity (mortality in %); for knock-down activity: 100 mg/m^2, two hours after contact, exposition 30 minutes. The method, then: Anopheles Test (ANPHGB Surface Treatment) Solvent: Acetone
To produce a suitable preparation of active compound, the active compound is dissolved in acetone (2 mg/ml). The active compound preparation is pipetted onto a glazed tile and, after drying, adult mosquitoes of the species Anopheles gambiae (homocygus kdr) are placed onto the treated tile. The exposition time is 30 minutes.
(§2) Two hours after contact to the treated surface, the knock-down proportion of the test animals in % is determined.
24 hours after contact to the treated surface, the mortality in % is determined. Here, 100% means that all mosquitoes have been killed; 0% means that none of the mosquitoes has been killed.

The test system of a further assay is Aedes aegypti. As to the kind of experiment: Aedes test (AEDSAE surface treatment). The conditions noted are these: for mortality at 100 mg/m2: Aedes aegypti, read-out: activity (mortality in %); for knock-down activity: 100 mg/m^2, two hours after contact, exposition 30 minutes. The procedure:
Aedes Test (AEDSAE Surface Treatment)
To produce a suitable preparation of active compound, the active compound is dissolved in acetone (2 mg/ml). The active compound preparation is pipetted onto a glazed tile and, after drying, adult mosquitoes of the species Aedes aegypti are placed onto the treated tile. The exposition time is 30 minutes.
as §2
24 hours after contact to the treated surface, the mortality in % is determined Here, 100% means that all mosquitoes have been killed; 0% means that none of the mosquitoes has been killed.

For another assay, the system named is Boophilus microplus. The experiment in a line: Boophilus microplus test (BOOPMI injection). The conditions noted are these: 20 μg/animal, injection into the abdomen, after 7 days. The procedure: Boophilus microplus Test (BOOPMI Injection)
Solvent: Dimethyl Sulphoxide
To produce a suitable preparation of active compound, 10 mg of active compound are mixed with 0.5 ml of solvent and the concentrate is diluted with solvent to the desired concentration. The solution of active compound is injected into the abdomen (Boophilus microplus), and the animals are transferred into dishes and kept in a climatized room. The activity is assessed by […] of fertile eggs.
After 7 days, the effect in % is determined 100% means that none of the ticks has laid any fertile eggs.

In the next assay the test system is Ctenocephalides felis. The experiment in a line: Ctenocephalides felis oral test (CTECFE). The conditions noted are these: 100 ppm in citrated cattle blood, after two days. The method, then:
Ctenocephalides Felis Oral Test (CTECFE)
Solvent: 1 Part by Weight of Dimethyl Sulphoxide
To produce a suitable preparation of active compound, 10 mg of active compound are mixed with 0.5 ml of dimethyl sulphoxide. Part of the concentrate is diluted with citrated cattle blood, and the desired concentration is prepared.
About 20 unfed adult fleas (Ctenocephalides felis) are placed into a chamber which is closed at the top and bottom with gauze. A metal cylinder whose bottom end is closed with parafilm is placed onto the chamber. The cylinder contains the blood/active compound preparation, which can be taken up by the fleas through the parafilm membrane. After two days, the kill in % is determined 100% means that all fleas have been killed; 0% means that none of the fleas have been killed.

Setting [7] is: active compound concentration 500 g/ha.
The mark [8] stands for this setting: active compound concentration 100 g/ha.

Usually mortality stands for the share of the test organisms that died. Take `Cc1ccc(N=C2C(=CSc3ccc(F)cc3)C(C)(C)c3ccccc32)cc1` [Example 1-21]: in assay [1], the “activity against cat fleas” value came to 100%. Also, the “Kill rate in % after 2 days” value in [1] (active compound concentration 0.032 g/ha) and in assay [1] (active compound concentration 0.16 g/ha) was 100% in each case. The pest or weed control at 500 g/ha in assay [2], in [3], in assay [4] and in assay [5] was 100% in each case. For the same compound, the figures for the “Kill rate in % after 7 days” value in [2] (setting [7]) and in [3] (setting [8]) were 100% and 83%, respectively. For the same compound, the “Kill rate in % after 6 days” value in assay [4] (setting [8]), in [4] (setting [7]), in [5] (setting [8]) and in [5] (setting [7]) was 100% in each case. In addition, the mortality at 100 mg/m2 (in assay [6]; in the assay on Aedes aegypti) was 100% in each case. Also, the “Kill rate in % after 24 hours” value in assay [6] (active compound concentration 8 g/ha) is reported as 100%.

In the case of `COc1ccc2c(c1)CCC(=CSc1ccc(F)cc1)C2=Nc1ccc(C)cc1` [Example 1-17], the “activity against cat fleas” value in assay [1] is given as 100%. The “activity (beetle larvae killed)” value in assay [2] turned out to be 100%. Moreover, in assay [3], the “activity (caterpillars killed)” value is given as 100%. For the same compound, the “activity (aphids killed)” value in assay [4] is reported as 100%. Also, the “activity (spider mites killed)” value in assay [5] is reported as 100%. Moreover, the values for the knock-down activity (in assay [6]; with Aedes aegypti) were 95% and 100%, respectively.

With `Cc1ccc(N=C2C(=CSc3ccccc3)C(c3ccccc3)c3ccccc32)cc1` (mixture of isomers) [Example 1-20], in the assay on Boophilus microplus, the “activity (100% = none of the ticks has laid any fertile eggs)” value was determined as 100%. Also, the “activity against cat fleas” value in [1] was 100%. Also, in [2], the “activity (beetle larvae killed)” value is 100%. Moreover, the “activity (caterpillars killed)” value in [3] stood at 100%. Also, in assay [4], the “activity (aphids killed)” value turned out to be 100%. In addition, in assay [5], the “activity (spider mites killed)” value stood at 100%.

With `CCc1ccc(N=C2C(=CSc3ccc(F)cc3)CCc3ccccc32)cc1` [Example 1-39], in assay [1], the “activity against cat fleas” value worked out at 100%. The “activity (beetle larvae killed)” value in assay [2] was found to be 100%. Further, the “activity (caterpillars killed)” value in [3] came to 100%. The “activity (aphids killed)” value in assay [4] stood at 100%. In addition, the “activity (spider mites killed)” value in [5] is on record as 80%. The knock-down activity (in assay [6]; in the assay with Aedes aegypti) was 100% in each case.

For the compound `Cc1ccc(N=C2c3ccccc3CCC2C(Sc2ccccc2)Sc2ccccc2)cc1` (centres unmarked) [Example 2-1], the pest or weed control at 500 g/ha was 100% in assay [2], 100% in assay [3], 90% in assay [4] and 80% in assay [5]. Besides, the knock-down activity (in assay [6]; in the assay with Aedes aegypti) was 100% each time. Further, the mortality at 100 mg/m2 (in [6]; in the assay on Aedes aegypti) was 100% in each case.

Consider `Cc1ccc(N=C2C(=CSc3ccc(F)cc3)CCc3ccccc32)c(C)c1` [Example 1-43], for which the “activity (beetle larvae killed)” value in assay [2] is given as 100%. For the same compound, in assay [3], the “activity (caterpillars killed)” value stood at 100%. In addition, the “activity (aphids killed)” value in assay [4] was 90%. Also, the “activity (spider mites killed)” value in [5] came out at 80%. Further, the knock-down activity (in [6]; with Aedes aegypti) was 100% each time.

In the case of `COc1ccc2c(c1)C(C)C(=CSc1ccc(F)cc1)C2=Nc1ccc(C)cc1` (mixture of isomers) [Example 1-65], in [2], the “activity (beetle larvae killed)” value came out at 100%. Also, the “activity (caterpillars killed)” value in assay [3] came out at 100%. For the same compound, the “activity (aphids killed)” value in assay [4] worked out at 100%. The “activity (spider mites killed)” value in assay [5] worked out at 100%. The knock-down activity is on record as 100% in assay [6] and 85% in the assay with Aedes aegypti.

Regarding `CCc1ccc2c(c1)CCC(=CSc1ccc(F)cc1)C2=Nc1ccc(C)cc1` [Example 1-84], the “activity against cat fleas” value in assay [1] is recorded as 100%. In assay [2], the “activity (beetle larvae killed)” value is recorded as 100%. Besides, the “activity (caterpillars killed)” value in [3] amounted to 100%. In addition, the “activity (aphids killed)” value in assay [4] is 100%. Besides, the “activity (spider mites killed)” value in [5] is given as 100%. Besides, the knock-down activity (in assay [6]; in the assay with Aedes aegypti) was 100% in each case.

Consider `Cc1ccc(N=C2C(=CSc3ccccc3)COc3ccccc32)cc1` [Example 1-7], for which the “activity against cat fleas” value in [1] was determined as 100%. In [2], the “activity (beetle larvae killed)” value is 100%. Besides, the “activity (caterpillars killed)” value in [3] came out at 100%. Moreover, the “activity (aphids killed)” value in [4] is 100%. In addition, in assay [5], the “activity (spider mites killed)” value is given as 100%. The figures for the knock-down activity (in assay [6]; in the assay with Aedes aegypti) were 100% and 85%, respectively.

In the case of `Cc1ccc(N=C2C(=CSc3ccc(F)cc3)C(C)c3cc(F)ccc32)cc1C` (mixture of isomers) [Example 1-63], the “activity (100% = none of the ticks has laid any fertile eggs)” value in the assay with Boophilus microplus is 100%. The “activity (kill in %)” value in the assay on Ctenocephalides felis is given as 90%. Further, in [1], the “activity against cat fleas” value was determined as 100%. In assay [2], the “activity (beetle larvae killed)” value is 100%. In addition, the “activity (caterpillars killed)” value in assay [3] is recorded as 100%. For the same compound, the “activity (aphids killed)” value in assay [4] stood at 100%. Besides, the “activity (spider mites killed)” value in [5] is listed as 100%.
